Square brackets hold non-standard residues; d marks the D form. Peptide text beside a SMILES is read from it.
Tested on: pituitaries
Test: In vitro growth hormone release study (incubated rat pituitaries, GH by RIA)
Assay type: cell-based
Conditions: mean of 9 assays ± SEM
Description: Female rats of the CD-1 strain were housed in a constant temperature room at 24° C. with 14 hours light and 10 hours darkness. The rats were fed Purina brand rat chow ab libitum. All studies were started between 0800 and 1000 hours.
Pituitaries were removed from 20 day old female rats. In each polytetrafluoroethylene beaker (10 ml) was incubated two pituitaries at 36° C. in 1 ml of lactated Ringer's solution in a Dubnoff Shaker (90 cycles/min.). All medium in each beaker was removed each hour (e.g., P1, P2, I3, I4, I5) and then fresh medium was added back to each beaker. Each medium removed was assayed for GH, in duplicate, by a standard radioimmunoassay (RIA).
The growth hormone agonist of Example 1 was not added to the incubation mediums employed during the first hour of the incubation period (P1) or to the incubation mediums employed during the second hour of the incubation period (P2). The growth hormone agonist of Example 1 was dissolved in dimethylsulfoxide (DMSO; 10:1, agonist:DMSO), added to each incubation medium employed during the third hour of the incubation period (I3), to each medium employed during the fourth hour of the incubation period (I4), and to each medium employed during the fifth hour of the incubation period (I5). The release of growth hormone was recorded as ΔGH and calculated by subtracting the amount of GH released at P2 from that released at I3, I4, and I5. The agonist activity was determined from the release at I3, I4, and I5.

Compound | ΔGH (peptide dosage 1 ng/ml incubation medium) | ΔGH (peptide dosage 3 ng/ml incubation medium) | ΔGH (peptide dosage 10 ng/ml incubation medium) | ΔGH (zeranol dosage 300 ng/ml incubation medium, pituitaries of 20 day old female rats, I3-I5 minus P2) | ΔGH (zeranol dosage 3,000 ng/ml incubation medium) | ΔGH (zeranol dosage 30,000 ng/ml incubation medium) | ΔGH (zeranol dosage 100,000 ng/ml incubation medium)
C[C@H](NC(=O)[C@@H](Cc1c[nH]c2ccccc12)NC(=O)[C@@H](N)Cc1c[nH]cn1)C(=O)N[C@@H](Cc1c[nH]c2ccccc12)C(=O)N[C@H](Cc1ccccc1)C(=O)N[C@@H](CCCCN)C(N)=O [H2 -His-D-Trp-Ala-Trp-D-Phe-Lys-NH2] (H-H[dW]AW[dF]K-NH2) | 887 ± 98 ng/ml incubation medium | 821 ± 138 ng/ml incubation medium | 2,759 ± 315 ng/ml incubation medium |  |  |  | 
C[C@H]1CCC[C@H](O)CCCCCc2cc(O)cc(O)c2C(=O)O1 [Zeranol, zeranol] |  |  |  | 83 ± 63 ng/ml incubation medium | 87 ± 59 ng/ml incubation medium | 683 ± 187 ng/ml incubation medium | -133 ± 98 ng/ml incubation medium
